Consider 15 compounds from patent publication US7488748B2, “3,6-Disubstituted azabicyclo hexane derivatives as muscarinic receptor antagonists” (Ranbaxy Laboratories Limited, priority 2003, dated 2009).

One experiment has as its target T1, M2 muscarinic receptor (Rattus norvegicus, UniProt P10980).
T1 construct: from tissue; host or cells: rat heart membrane homogenate
T1 sequence (P10980 1-466): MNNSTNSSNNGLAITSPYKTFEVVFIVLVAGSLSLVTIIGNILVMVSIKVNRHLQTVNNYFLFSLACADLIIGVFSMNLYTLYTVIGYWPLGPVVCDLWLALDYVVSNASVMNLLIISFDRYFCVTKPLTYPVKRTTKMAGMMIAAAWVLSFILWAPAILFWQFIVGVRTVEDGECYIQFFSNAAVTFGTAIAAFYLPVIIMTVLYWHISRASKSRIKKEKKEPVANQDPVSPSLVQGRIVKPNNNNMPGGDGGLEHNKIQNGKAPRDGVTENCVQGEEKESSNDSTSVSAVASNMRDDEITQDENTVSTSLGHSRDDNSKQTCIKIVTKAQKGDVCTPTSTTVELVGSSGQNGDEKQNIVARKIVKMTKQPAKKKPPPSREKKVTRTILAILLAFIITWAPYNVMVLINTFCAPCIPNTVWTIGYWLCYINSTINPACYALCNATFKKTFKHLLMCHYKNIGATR
Nature of the experiment: Radioligand binding assay, [3H]-N-methylscopolamine, rat heart membranes. The conditions noted are these: [3H]NMS, Ki by Cheng & Prusoff; for Ki: read-out: Receptor Binding Assay pKi M2 (converted). As for the experimental part:
(§1) The affinity of test compounds for M2 and M3 muscarinic receptor subtypes was determined by [^3H]—N-methylscopolamine binding studies using rat heart and submandibular gland respectively as described by Moriya et al., (Life Sci., 1999,64(25):2351-2358) with minor modifications.
(§2) Membrane preparation: Submandibular glands and heart were isolated and placed in ice cold homogenizing buffer (HEPES 20 mM, 10 mM EDTA, pH 7.4) immediately after sacrifice. The tissues were homogenized in 10 volumes of homogenizing buffer and the homogenate was filtered through two layers of wet gauze and filtrate was centrifuged at 500 g for 10 min. The supernatant was subsequently centrifuged at 40,000 g for 20 min. The pellet thus obtained was resuspended in same volume of assay buffer (HEPES 20 mM, EDTA 5 mM, pH 7.4) and were stored at −70° C. until the time of assay.
(§3) Ligand binding assay The compounds were dissolved and diluted in DMSO. The membrane homogenates (150-250 μg protein) were incubated in 250 μl of assay buffer (HEPES 20 mM, pH 7.4) at 24-25° C. for 3 h. Non-specific binding was determined in the-presence of 1 μM atropine. The incubation was terminated by vacuum filtration over GF/B fiber filters(Wallac). The filters were then washed with ice cold 50 mM Tris HCl buffer (pH 7.4). The filter mats were dried and bound radioactivity retained on filters was counted. The IC50 & Kd were estimated by using the non-linear curve fitting program using G Pad Prism software. The value of inhibition constant Ki was calculated from competitive binding studies by using Cheng & Prusoff equation (Biochem Pharmacol, 1973,22: 3099-3108), Ki=IC50/(1+L/Kd), where L is the concentration of [^3H]NMS used in the particular experiment.

Another experiment concerns the target T2, M3 muscarinic receptor (Rattus norvegicus, UniProt P08483).
T2 construct: from tissue; host or cells: rat submandibular gland membrane homogenate
Nature of the experiment: Radioligand binding assay, [3H]-N-methylscopolamine, rat submandibular gland membranes. To be noted: [3H]NMS, Ki by Cheng & Prusoff; for Ki: read-out: Receptor Binding Assay pKi M3 (converted). As for the experimental part:
as §1, §2, §3

The subject of the next experiment is isolated rat bladder. Nature of the experiment: Functional experiments using isolated rat bladder (carbachol-induced contraction). To be noted: isolated rat bladder strips, carbachol concentration response curve, antagonist added 20 min prior. As for the experimental part:
Functional Experiments Using Isolated Rat Bladder:
Animals were euthanized by overdose of urethane and whole bladder was isolated and removed rapidly and placed in ice cold Tyrode buffer with the following composition (mMol/L) NaCl 137; KCl 2.7; CaCl2 1.8; MgCl2 0.1; NaHCO3 11.9; NaH2PO4 0.4; Glucose 5:55 and continuously gassed with 95% O2 and 5% CO2.
The bladder was cut into longitudinal strips (3 mm wide and 5-6 mm long) and mounted in 10 ml organ baths at 30° C., with one end connected to the base of the tissue holder and the other end connected to a polygraph through a force displacement transducer. Each tissue was maintained at a constant basal tension of 2 g and allowed to equilibrate for 1 hour during which the PSS was changed every 15 min. At the end of equilibration period the stabilization of the tissue contractile response was assessed with 1 μmol/L of Carbachol consecutively for 2-3 times. Subsequently a cumulative concentration response curve to carbachol (10-9 mol/L to 3×10^−5 mol/L) was obtained. After several washes, once the baseline was achieved, cumulative concentration response curve was obtained in presence of NCE (NCE added 20 min. prior to the second CRC).
The contractile results were expressed as % of control E max. ED50 values were calculated by fitting a non-linear regression curve (Graph Pad Prism). PKB values were calculated by the formula pKB=−log [(molar concentration of antagonist/(dose ratio−1))]
dose ratio=ED50 in the presence of antagonist/ED50 in the absence of antagonist.

Where only a bound is given, the exact number is not on record here.

T2 sequence (P08483 whole entry): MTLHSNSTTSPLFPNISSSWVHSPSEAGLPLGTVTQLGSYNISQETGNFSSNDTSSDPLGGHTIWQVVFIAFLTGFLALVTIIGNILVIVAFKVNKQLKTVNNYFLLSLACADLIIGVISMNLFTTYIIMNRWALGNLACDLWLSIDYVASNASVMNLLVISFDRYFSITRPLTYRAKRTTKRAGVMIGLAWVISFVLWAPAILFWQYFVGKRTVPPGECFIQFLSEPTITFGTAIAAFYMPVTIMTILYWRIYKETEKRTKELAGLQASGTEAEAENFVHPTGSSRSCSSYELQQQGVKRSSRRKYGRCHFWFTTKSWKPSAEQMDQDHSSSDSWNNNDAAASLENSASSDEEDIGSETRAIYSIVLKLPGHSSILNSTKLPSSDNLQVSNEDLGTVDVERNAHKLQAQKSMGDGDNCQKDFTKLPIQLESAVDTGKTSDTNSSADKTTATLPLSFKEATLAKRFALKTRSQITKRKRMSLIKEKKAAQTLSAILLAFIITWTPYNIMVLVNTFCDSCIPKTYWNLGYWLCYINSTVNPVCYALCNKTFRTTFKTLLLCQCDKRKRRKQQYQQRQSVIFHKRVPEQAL

Regarding `O=C(NC1C2CN(Cc3cccs3)CC21)C(O)(c1ccccc1)C1CCCCC1` (stereo not drawn) [Compound No. 2, (1α, 5α, 6α)-N-[3-(2-Thienylmethyl)-3-azabicyclo[3.1.0]hex-6-yl]-2-hydroxy-2-cyclohexyl-2-phenylacetamide], the Ki was 3160 nM on M2 muscarinic receptor and 129 nM on M3 muscarinic receptor. Further, in the experiment on isolated rat bladder, the Functional Assay pKB came out at 7.52.
As to `O=C(NC1C2CN(Cc3cccs3)CC21)C(O)(c1ccccc1)C1CCCC1` (stereo not drawn) [Compound No. 3, (1α, 5α, 6α)-N-[3-(2-thienylmethyl)-3-azabicyclo[3.1.0]hex-6-yl]-2-hydroxy-2-cyclopentyl-2-phenylacetamide], the Ki at M2 muscarinic receptor was 3980 nM; at M3 muscarinic receptor, 525 nM. Besides, the Functional Assay pKB in the experiment with isolated rat bladder amounted to 8.04.
As for `O=C(NC1C2CN(CCc3ccc(Cl)cc3)CC21)C(O)(c1ccccc1)C1CCCC1` (stereo not drawn) [Compound No. 17, (1α, 5α, 6α)-N-[3-(4-chlorophenethyl)-3-azabicyclo[3.1.0]hex-6-yl]-2-hydroxy-2-cyclopentyl-2-phenylacetamide], the Ki on M2 muscarinic receptor was 501 nM; on M3 muscarinic receptor, 79.4 nM. The same compound displayed a Functional Assay pKB in the experiment on isolated rat bladder of 7.02.
The like results for `O=C(NC1C2CN(CCCc3ccccc3)CC21)C(O)(c1ccccc1)C1CCCC1` (stereo not drawn) [Compound No. 19, (1α, 5α, 6α)-N-[3-(3-phenylpropyl)-3-azabicyclo[3.1.0]hex-6-yl]-2-hydroxy-2-cyclopentyl-2-phenylacetamide] were, in that order, 2630 nM, 776 nM and 7.52.
On the same counts, the results for `CC(c1ccccc1)N1CC2C(C1)C2NC(=O)C(O)(c1ccccc1)C1CCCC1` (stereo not drawn) [Compound No. 21, (1α, 5α, 6α)-N-[3-(1-phenylethyl)-3-azabicyclo[3.1.0]hex-6-yl]-2-hydroxy-2-cyclopentyl-2-phenylacetamide] are 631 nM, 25.1 nM and 8.2.
In the case of `Cc1ccc(C(C)N2CC3C(C2)C3NC(=O)C(O)(c2ccccc2)C2CCCC2)cc1` (stereo not drawn) [Compound No. 43, (1α, 5α, 6α)-N-[3-[1-(4-methylphenyl)ethyl]-3-azabicyclo[3.1.0]hex-6-yl]-2-hydroxy-2-cyclopentyl-2-phenylacetamide], the Ki on M2 muscarinic receptor is 1230 nM; on M3 muscarinic receptor, 58.9 nM. For the same compound, the Functional Assay pKB in the experiment with isolated rat bladder amounted to 6.86.
Consider `Cc1ccc(CCN2CC3C(C2)C3NC(=O)C(O)(c2ccccc2)C2CCCC2)cc1C` (stereo not drawn) [Compound No. 50], for which the Ki was 813 nM at M2 muscarinic receptor and 43.7 nM at M3 muscarinic receptor. This compound also returned a Functional Assay pKB in the experiment with isolated rat bladder of 7.48.
As for `CC(c1ccccc1)N1CC2C(C1)C2NC(=O)C(O)(c1ccccc1)C1CCCCC1` (stereo not drawn) [Compound No. 58, (1α, 5α, 6α)-N-[3-[1-(phenyl)ethyl]-3-azabicyclo [3.1.0]hex-6-yl]-2-hydroxy-2-cyclohexyl-2-phenylacetamide], the Ki at M2 muscarinic receptor was 155 nM; at M3 muscarinic receptor, 5.89 nM. The compound also showed a Functional Assay pKB in the experiment on isolated rat bladder of 7.89.
In the case of `COC(=O)c1ccc(CCN2CC3C(C2)C3NC(=O)C(O)(c2ccccc2)C2CCCC2)cc1` (stereo not drawn) [Compound No. 66, (1α, 5α, 6α)-N-[3-(2-(4-methoxycarbonyl)phenyl)ethyl-3-azabicyclo[3.1.0]hex-6-yl]-2-hydroxy-2-cyclopentyl-2-phenylacetamide], the Ki was 537 nM at M2 muscarinic receptor and 43.7 nM at M3 muscarinic receptor. This compound also returned a Functional Assay pKB in the experiment on isolated rat bladder of 7.67.
In the case of `O=C(N[C@H]1[C@@H]2CN(CCc3ccc(CO)cc3)C[C@@H]21)C(O)(c1ccccc1)C1CCCC1` (stereo partly drawn) [Compound No. 71, (1α, 5α, 6α)-N-[3-(4-hydroxymethylphenethyl)-3-azabicyclo [3.1.0]-hex-6-yl]-2-hydroxy-2-cyclopentyl-2-phenylacetamide], on M2 muscarinic receptor, the “Receptor Binding Assay pKi M2” value amounted to 6.01. Further, on M3 muscarinic receptor, the “Receptor Binding Assay pKi M3” value is reported as 7.37 -log M (pKi, unitless). This compound also registered a Functional Assay pKB with isolated rat bladder of 6.8.
In the case of `CC(c1ccccc1)N1C[C@@H]2[C@H](C1)[C@H]2NC(=O)C(O)(c1ccccc1)C1CCCCCC1` (stereo partly drawn) [Compound No. 81, (1α, 5α, 6α)-N-[3-(1-phenylethyl)-3-azabicyclo[3.1.0]-hex-6-yl]-2-hydroxy-2-cycloheptyl-2-phenylacetamide], the “Receptor Binding Assay pKi M2” value on M2 muscarinic receptor was determined as 7.27. Besides, on M3 muscarinic receptor, the “Receptor Binding Assay pKi M3” value was 8.62 -log M (pKi, unitless). In the experiment on isolated rat bladder, this compound registered a Functional Assay pKB of 7.89.
For the compound `O=C(NC1C2CN(Cc3ccccc3)CC21)C(Cl)(c1ccccc1)C1CCCCC1` (stereo not drawn) [Compound No. 115, (1α, 5α, 6α)-N-[3-benzyl-3-azabicyclo[3.1.0]-hex-6-yl]-2-chloro-2-cyclohexyl-2-phenylacetamide], the Ki on M2 muscarinic receptor and on M3 muscarinic receptor was greater than 1000 nM each time. This compound gave a Functional Assay pKB in the experiment on isolated rat bladder of 5.45.
As to `O=C(NC1C2CN(Cc3ccccc3)CC21)C(c1ccccc1)C1CCCCC1` (stereo not drawn) [Compound No. 116, (1α, 5α, 6α)-N-[3-benzyl-3-azabicyclo[3.1.0]-hex-6-yl]-2-cyclohexyl-1-2-phenylacetamide], the Ki at M2 muscarinic receptor and on M3 muscarinic receptor was greater than 1000 nM each time. The compound further had a Functional Assay pKB in the experiment with isolated rat bladder of 6.03.
On to `O=C(NC1C2CN(Cc3ccccc3)CC21)C(O)c1ccccc1` (stereo not drawn) [Compound No. 117, (1α, 5α, 6α)-N-[3-benzyl-3-azabicyclo[3.1.0]-hex-6-yl]-2-hydroxy-2-phenylacetamide], for which the Ki at M2 muscarinic receptor and at M3 muscarinic receptor was greater than 1000 nM each time. The compound further gave a Functional Assay pKB with isolated rat bladder of 5.08.
Regarding `CC(C)=CCCN1CC2C(C1)C2N(C)C(=O)C(O)(c1ccccc1)C1CCCC1` (stereo not drawn) [Compound No. 125, N-methyl-N-(1α, 5α, 6α)-N-[3-(4-methyl-3-pentenyl)-3-azabicyclo[3.1.0]-hex-6-yl]-2-cyclopentyl-2-hydroxy-2-phenylacetamide], the Ki was 24.5 nM on M2 muscarinic receptor and 26.3 nM on M3 muscarinic receptor. In the experiment on isolated rat bladder, the Functional Assay pKB was 8.36.
